Experimental data: the supplement of paper PMC10627819

How the values were obtained:
S. aureus DSM 20231 = experiment: Bliss interaction score (quartile over a dose matrix) (fitness difference); higher = more antagonism (negative = synergy)
In short: (§1)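 Combination data were used to infer fitness under each single drug. Fitness is the OD595 at entry into stationary phase divided by the robust mean of the plate's no-drug wells, with a cap of 1. The Bliss score is the observed minus the expected product fitness, summarised by quartiles over technical, biological and donor/recipient replicates.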

B. subtilis 168 [1] = experiment: as above
In short: as §1

S. pneumoniae D39V [2] = experiment: as above
In short: as §1

S. aureus Newman [3] = experiment: as above
In short: as §1

S. pneumoniae D39V [4] = experiment: fitness (endpoint OD595 vs no drug) (fraction); higher = more growth
In short: (§2)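 Fitness was measured as bacterial growth in 384-well plates inoculated at OD595 0.01 (30 µl, or 55 µl for S. pneumoniae). Media were TSB, LB Lennox or CY, at 37 °C. OD595 was read every 30 min for 14 h and background-subtracted against the first reading. Fitness is OD595 at the transition into stationary phase divided by the robust mean of no-drug control wells, capped at 1.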

S. aureus Newman [5] = experiment: as above
In short: as §2

B. subtilis 168 [6] = experiment: as above
In short: as §2
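Wherever Bliss interaction score (quartile over a dose matrix) is given: first quartile when negative (synergy) and third quartile when positive (antagonism).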

CCC[C@@H]1C[C@@H](C(=O)N[C@@H]([C@H]2O[C@H](SC)[C@H](O)[C@@H](O)[C@H]2O)[C@H](C)Cl)N(C)C1 [Clindamycin] + C/C(=C\C(=O)OCCCCCCCCC(=O)O)C[C@@H]1OC[C@H](C[C@@H]2O[C@H]2[C@@H](C)[C@H](C)O)[C@@H](O)[C@H]1O [Pseudomonic acid]
Conditions	Bliss interaction score
B. subtilis 168 [1]	0.0726
S. aureus DSM 20231	0.0297
S. aureus Newman [3]	0.0412
S. pneumoniae D39V [2]	-0.15

fitness, S. pneumoniae D39V [4]
Conditions	first compound 0.0125 µg/mL	first compound 0.015 µg/mL	first compound 0.025 µg/mL	first compound 0.03 µg/mL	first compound 0.05 µg/mL	first compound 0.06 µg/mL
partner 0.03 µg/mL	0.78	0.836	0.499	0.703	0.211	–
partner 0.06 µg/mL	0.716	0.69	0.4	–	0.17	0.281
partner 0.12 µg/mL	0.237	0.326	0.119	0.229	0.0924	0.16

fitness, S. aureus Newman [5], one replicate
Conditions	first compound 0.0312 µg/mL	first compound 0.0625 µg/mL	first compound 0.125 µg/mL
partner 0.0313 µg/mL	0.0504	0.0504	0.0456
partner 0.0625 µg/mL	0.046	0.0445	0.0496
partner 0.125 µg/mL	0.0438	0.0538	0.0533

CCC[C@@H]1C[C@@H](C(=O)N[C@@H]([C@H]2O[C@H](SC)[C@H](O)[C@@H](O)[C@H]2O)[C@H](C)Cl)N(C)C1 [Clindamycin] + CC(C1CCC(C(O1)OC2C(CC(C(C2O)OC3C(C(C(CO3)(C)O)NC)O)N)N)N)NC [Gentamicin]
main component drawn
Conditions	Bliss interaction score
B. subtilis 168 [1]	0.192
S. aureus DSM 20231	0.0691
S. aureus Newman [3]	0.148
S. pneumoniae D39V [2]	-0.0694

fitness, one replicate, main component drawn
Conditions	first compound 0.0039 µg/mL	first compound 0.0078 µg/mL	first compound 0.0156 µg/mL	first compound 0.0312 µg/mL	first compound 0.0625 µg/mL	first compound 0.125 µg/mL
B. subtilis 168 [6], partner 0.0625 µg/mL	0.962	0.911	0.828	–	–	–
B. subtilis 168 [6], partner 0.125 µg/mL	0.995	0.938	0.839	–	–	–
B. subtilis 168 [6], partner 0.25 µg/mL	0.94	0.867	0.791	–	–	–
S. aureus Newman [5], partner 0.375 µg/mL	–	–	–	0.709	0.55	0.138
S. aureus Newman [5], partner 0.75 µg/mL	–	–	–	0.705	0.542	0.177
S. aureus Newman [5], partner 1.5 µg/mL	–	–	–	0.576	0.254	0.119

main component drawn
Conditions	fitness
B. subtilis 168 [6], first compound 0.0625 µg/mL, partner 0.0625 µg/mL	0.52
B. subtilis 168 [6], first compound 0.125 µg/mL, partner 0.0625 µg/mL	0.397
B. subtilis 168 [6], first compound 0.125 µg/mL, partner 0.25 µg/mL	0.0596
B. subtilis 168 [6], first compound 0.25 µg/mL, partner 0.25 µg/mL	0.0604
S. aureus Newman [5], first compound 0.0312 µg/mL, partner 0.5 µg/mL	0.839
S. aureus Newman [5], first compound 0.0312 µg/mL, partner 2 µg/mL	0.988
S. pneumoniae D39V [4], first compound 0.0125 µg/mL, partner 2 µg/mL	0.781
S. pneumoniae D39V [4], first compound 0.0125 µg/mL, partner 4 µg/mL	0.812
S. pneumoniae D39V [4], first compound 0.0125 µg/mL, partner 8 µg/mL	0.768
S. pneumoniae D39V [4], first compound 0.015 µg/mL, partner 2 µg/mL	0.732
S. pneumoniae D39V [4], first compound 0.015 µg/mL, partner 4 µg/mL	0.698
S. pneumoniae D39V [4], first compound 0.015 µg/mL, partner 8 µg/mL	0.63
S. pneumoniae D39V [4], first compound 0.025 µg/mL, partner 2 µg/mL	0.528
S. pneumoniae D39V [4], first compound 0.025 µg/mL, partner 4 µg/mL	0.513
S. pneumoniae D39V [4], first compound 0.025 µg/mL, partner 8 µg/mL	0.454
S. pneumoniae D39V [4], first compound 0.03 µg/mL, partner 2 µg/mL	0.454
S. pneumoniae D39V [4], first compound 0.03 µg/mL, partner 4 µg/mL	0.425
S. pneumoniae D39V [4], first compound 0.03 µg/mL, partner 8 µg/mL	0.405
S. pneumoniae D39V [4], first compound 0.05 µg/mL, partner 2 µg/mL	0.239
S. pneumoniae D39V [4], first compound 0.05 µg/mL, partner 4 µg/mL	0.254
S. pneumoniae D39V [4], first compound 0.05 µg/mL, partner 8 µg/mL	0.224
S. pneumoniae D39V [4], first compound 0.06 µg/mL, partner 2 µg/mL	0.299
S. pneumoniae D39V [4], first compound 0.06 µg/mL, partner 4 µg/mL	0.249
S. pneumoniae D39V [4], first compound 0.06 µg/mL, partner 8 µg/mL	0.244

CCC[C@@H]1C[C@@H](C(=O)N[C@@H]([C@H]2O[C@H](SC)[C@H](O)[C@@H](O)[C@H]2O)[C@H](C)Cl)N(C)C1 [Clindamycin] + CN(C)c1cc(NC(=O)CNC(C)(C)C)c(O)c2c1C[C@H]1C[C@H]3[C@H](N(C)C)C(O)=C(C(N)=O)C(=O)[C@@]3(O)C(O)=C1C2=O [Tigecycline]
Conditions	Bliss interaction score
B. subtilis 168 [1]	-0.0489
S. aureus DSM 20231	-0.0949
S. aureus Newman [3]	-0.0653
S. pneumoniae D39V [2]	-0.0934

fitness, B. subtilis 168 [6], one replicate
Conditions	first compound 0.0039 µg/mL	first compound 0.0078 µg/mL	first compound 0.0156 µg/mL	first compound 0.0625 µg/mL	first compound 0.125 µg/mL	first compound 0.25 µg/mL
partner 0.039 µg/mL	0.986	0.866	0.862	–	–	–
partner 0.078 µg/mL	≥ 1	0.88	0.831	–	–	–
partner 0.125 µg/mL	–	–	–	0.809	0.656	0.44
partner 0.156 µg/mL	0.906	0.81	0.908	–	–	–
partner 0.25 µg/mL	–	–	–	0.722	0.575	0.342
partner 0.5 µg/mL	–	–	–	0.743	0.601	0.378

Conditions	fitness
B. subtilis 168 [6], first compound 0.0625 µg/mL, partner 0.039 µg/mL	0.596
B. subtilis 168 [6], first compound 0.0625 µg/mL, partner 0.078 µg/mL	0.537
B. subtilis 168 [6], first compound 0.0625 µg/mL, partner 0.156 µg/mL	0.538
B. subtilis 168 [6], first compound 0.125 µg/mL, partner 0.039 µg/mL	0.387
B. subtilis 168 [6], first compound 0.125 µg/mL, partner 0.078 µg/mL	0.38
B. subtilis 168 [6], first compound 0.125 µg/mL, partner 0.156 µg/mL	0.374
B. subtilis 168 [6], first compound 0.25 µg/mL, partner 0.039 µg/mL	0.378
B. subtilis 168 [6], first compound 0.25 µg/mL, partner 0.078 µg/mL	0.365
B. subtilis 168 [6], first compound 0.25 µg/mL, partner 0.156 µg/mL	0.369
S. aureus Newman [5], first compound 0.0312 µg/mL, partner 0.039 µg/mL	0.708
S. aureus Newman [5], first compound 0.0312 µg/mL, partner 0.078 µg/mL	0.715
S. aureus Newman [5], first compound 0.0312 µg/mL, partner 0.156 µg/mL	0.709
S. aureus Newman [5], first compound 0.125 µg/mL, partner 0.039 µg/mL	0.118
S. aureus Newman [5], first compound 0.125 µg/mL, partner 0.078 µg/mL	0.112
S. aureus Newman [5], first compound 0.125 µg/mL, partner 0.156 µg/mL	0.113
S. pneumoniae D39V [4], first compound 0.0125 µg/mL, partner 0.325 µg/mL	0.668
S. pneumoniae D39V [4], first compound 0.0125 µg/mL, partner 0.65 µg/mL	0.695
S. pneumoniae D39V [4], first compound 0.0125 µg/mL, partner 1.3 µg/mL	0.652
S. pneumoniae D39V [4], first compound 0.015 µg/mL, partner 0.65 µg/mL	0.753
S. pneumoniae D39V [4], first compound 0.015 µg/mL, partner 1.3 µg/mL	0.755
S. pneumoniae D39V [4], first compound 0.015 µg/mL, partner 2.6 µg/mL	0.815
S. pneumoniae D39V [4], first compound 0.025 µg/mL, partner 0.325 µg/mL	0.503
S. pneumoniae D39V [4], first compound 0.025 µg/mL, partner 0.65 µg/mL	0.461
S. pneumoniae D39V [4], first compound 0.025 µg/mL, partner 1.3 µg/mL	0.442
S. pneumoniae D39V [4], first compound 0.03 µg/mL, partner 0.65 µg/mL	0.653
S. pneumoniae D39V [4], first compound 0.03 µg/mL, partner 1.3 µg/mL	0.66
S. pneumoniae D39V [4], first compound 0.03 µg/mL, partner 2.6 µg/mL	0.673
S. pneumoniae D39V [4], first compound 0.05 µg/mL, partner 0.325 µg/mL	0.233
S. pneumoniae D39V [4], first compound 0.05 µg/mL, partner 0.65 µg/mL	0.2
S. pneumoniae D39V [4], first compound 0.05 µg/mL, partner 1.3 µg/mL	0.189
S. pneumoniae D39V [4], first compound 0.06 µg/mL, partner 0.65 µg/mL	0.551
S. pneumoniae D39V [4], first compound 0.06 µg/mL, partner 1.3 µg/mL	0.557
S. pneumoniae D39V [4], first compound 0.06 µg/mL, partner 2.6 µg/mL	0.539
